Assay results as given in ChEMBL document CHEMBL1201862, “PubChem BioAssay data set” (2004).
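Results reflect a 48-hour exposure of cells in 96-well plates to compound at five concentrations. GI50 is the concentration that inhibits growth by half.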 Active and inactive are the calls of the source. No stated cut-off is given here; in the data, active = GI50 up to about 1.1 µM and inactive = higher.

Legend:
Assay in all cases: inhibition of tumour cell growth, NCI panel, 48 h
DLD-1 = system: DLD-1
UACC-62 = system: UACC-62
COLO 205 = system: COLO 205
SK-MEL-2 = system: SK-MEL-2
MOLT-4 = system: MOLT-4
SK-MEL-5 = system: SK-MEL-5
A549 = system: A549
NCI-H226 = system: NCI-H226
NCI-H460 = system: NCI-H460
M14 = system: M14
HOP-62 = system: HOP-62
Malme-3M = system: Malme-3M
UACC-257 = system: UACC-257
SW-620 = system: SW-620
SF-539 = system: SF-539
DMS-114 = system: DMS-114
SNB-19 = system: SNB-19
M19-MEL = system: M19-MEL
KM-20L2 = system: KM-20L2
NCI/ADR-RES = system: NCI/ADR-RES

| Structure (SMILES) | GI50 (DLD-1) | GI50 (UACC-62) | GI50 (COLO 205) | GI50 (SK-MEL-2) | GI50 (MOLT-4) | GI50 (SK-MEL-5) | GI50 (A549) | GI50 (NCI-H226) | GI50 (NCI-H460) | GI50 (M14) | GI50 (HOP-62) | GI50 (Malme-3M) | GI50 (UACC-257) | GI50 (SW-620) | GI50 (SF-539) | GI50 (DMS-114) | GI50 (SNB-19) | GI50 (M19-MEL) | GI50 (KM-20L2) | GI50 (NCI/ADR-RES) |
| --- | --- | --- | --- | --- | --- | --- | --- | --- | --- | --- | --- | --- | --- | --- | --- | --- | --- | --- | --- | --- |
| CCOC(=O)C1=C(Nc2ccc(Cl)cc2Cl)OC/C1=N\NS(=O)(=O)c1ccc(C)cc1 | > 100 µM (inactive) | 92.9 µM (inactive) | > 100 µM (inactive) | > 100 µM (inactive) | > 100 µM (inactive) | > 100 µM (inactive) | > 100 µM (inactive) | > 100 µM (inactive) | > 100 µM (inactive) | > 100 µM (inactive) | > 100 µM (inactive) | > 100 µM (inactive) | > 100 µM (inactive) | > 100 µM (inactive) | > 100 µM (inactive) | > 100 µM (inactive) | > 100 µM (inactive) | > 100 µM (inactive) | > 100 µM (inactive) | – |
| C#Cc1c(C)c(/C=C/C(C)=C/C=C/C(C)=C/C(=O)OC)n(C)c1C | > 100 µM (inactive) | 62.5 µM (inactive) | > 100 µM (inactive) | > 100 µM (inactive) | > 100 µM (inactive) | – | > 100 µM (inactive) | – | > 100 µM (inactive) | > 100 µM (inactive) | > 100 µM (inactive) | > 100 µM (inactive) | > 100 µM (inactive) | > 100 µM (inactive) | > 100 µM (inactive) | > 100 µM (inactive) | > 100 µM (inactive) | > 100 µM (inactive) | > 100 µM (inactive) | – |
| O=C(O)CCNCCCNCCC(=O)O | > 100 µM (inactive) | > 100 µM (inactive) | > 100 µM (inactive) | > 100 µM (inactive) | > 100 µM (inactive) | > 100 µM (inactive) | > 100 µM (inactive) | > 100 µM (inactive) | > 100 µM (inactive) | > 100 µM (inactive) | > 100 µM (inactive) | > 100 µM (inactive) | – | > 100 µM (inactive) | > 100 µM (inactive) | > 100 µM (inactive) | > 100 µM (inactive) | > 100 µM (inactive) | > 100 µM (inactive) | – |
| Cc1nc2c(o1)/C(=N\c1ccccc1)c1ccccc1/C2=N/c1ccccc1 | 53.6 µM (inactive) | > 100 µM (inactive) | 29.1 µM (inactive) | 61.9 µM (inactive) | > 100 µM (inactive) | > 100 µM (inactive) | > 100 µM (inactive) | – | 39.4 µM (inactive) | 51.5 µM (inactive) | > 100 µM (inactive) | 56.6 µM (inactive) | > 100 µM (inactive) | 16.9 µM (inactive) | > 100 µM (inactive) | 39.2 µM (inactive) | > 100 µM (inactive) | 55.1 µM (inactive) | > 100 µM (inactive) | – |
| Cc1cc(O)c2c(c1)C(=O)c1cc(O)cc(O)c1C2=O [EMODIN] | 23.3 µM (inactive) | – | 19.8 µM (inactive) | 33.9 µM (inactive) | 31 µM (inactive) | 5.94 µM (inactive) | 23 µM (inactive) | 20.1 µM (inactive) | 20.3 µM (inactive) | 21.4 µM (inactive) | 14.4 µM (inactive) | 11 µM (inactive) | 28.1 µM (inactive) | 27.6 µM (inactive) | – | 41.2 µM (inactive) | 31.8 µM (inactive) | – | 40.8 µM (inactive) | – |
| CS/C(=N\C(=S)N(C)C)N(c1ccccc1)c1nc(N(C)C)s[s+]1 | – | 4.88 µM (inactive) | 2 µM (inactive) | 5.52 µM (inactive) | 3.08 µM (inactive) | – | 3.84 µM (inactive) | – | 2.91 µM (inactive) | 4.83 µM (inactive) | 19.5 µM (inactive) | 2.34 µM (inactive) | 3.95 µM (inactive) | 4.05 µM (inactive) | 7.67 µM (inactive) | 0.708 µM (active) | 32.6 µM (inactive) | 3.18 µM (inactive) | 15.9 µM (inactive) | – |
| CCCCCCCCOC(CO)CO | > 100 µM (inactive) | > 100 µM (inactive) | > 100 µM (inactive) | – | > 100 µM (inactive) | > 100 µM (inactive) | > 100 µM (inactive) | > 100 µM (inactive) | > 100 µM (inactive) | > 100 µM (inactive) | > 100 µM (inactive) | > 100 µM (inactive) | > 100 µM (inactive) | > 100 µM (inactive) | – | > 100 µM (inactive) | > 100 µM (inactive) | > 100 µM (inactive) | > 100 µM (inactive) | – |
| COC(=O)C1CCC[C@H]2C(CO)=C(C)C(=O)[C@@H]12 (stereo not given in full) | > 100 µM (inactive) | > 100 µM (inactive) | > 100 µM (inactive) | > 100 µM (inactive) | > 100 µM (inactive) | > 100 µM (inactive) | > 100 µM (inactive) | > 100 µM (inactive) | > 100 µM (inactive) | > 100 µM (inactive) | > 100 µM (inactive) | > 100 µM (inactive) | > 100 µM (inactive) | > 100 µM (inactive) | > 100 µM (inactive) | > 100 µM (inactive) | > 100 µM (inactive) | – | > 100 µM (inactive) | – |
| CC1(c2cc3c(cc2Br)OCO3)SCCCS1 | 34.8 µM (inactive) | 50.6 µM (inactive) | 51.4 µM (inactive) | 26.2 µM (inactive) | 24.7 µM (inactive) | 20.4 µM (inactive) | 34.5 µM (inactive) | 32.4 µM (inactive) | 36.2 µM (inactive) | 38.3 µM (inactive) | 31.1 µM (inactive) | – | – | 42.1 µM (inactive) | 36.5 µM (inactive) | 32.2 µM (inactive) | 47.4 µM (inactive) | 39.6 µM (inactive) | 34.4 µM (inactive) | – |
| CCc1ccccc1NC(=O)CCc1n[nH]c(=S)o1 | 92.5 µM (inactive) | > 100 µM (inactive) | > 100 µM (inactive) | – | > 100 µM (inactive) | > 100 µM (inactive) | > 100 µM (inactive) | > 100 µM (inactive) | > 100 µM (inactive) | > 100 µM (inactive) | > 100 µM (inactive) | > 100 µM (inactive) | > 100 µM (inactive) | 18.6 µM (inactive) | 76.2 µM (inactive) | > 100 µM (inactive) | > 100 µM (inactive) | > 100 µM (inactive) | > 100 µM (inactive) | – |
| COC(=O)/C(=N/O)C(C(=O)OC)C(=O)C(=O)Nc1c(Cl)cc(C)cc1S(=O)(=O)O (stereo not given) | > 100 µM (inactive) | > 100 µM (inactive) | > 100 µM (inactive) | > 100 µM (inactive) | > 100 µM (inactive) | > 100 µM (inactive) | > 100 µM (inactive) | > 100 µM (inactive) | 41.5 µM (inactive) | > 100 µM (inactive) | > 100 µM (inactive) | > 100 µM (inactive) | > 100 µM (inactive) | – | > 100 µM (inactive) | 56.1 µM (inactive) | > 100 µM (inactive) | > 100 µM (inactive) | > 100 µM (inactive) | – |
| CC1C(=O)CC(c2cccs2)N(N=O)C1c1cccs1 (stereo not given) | 70.3 µM (inactive) | 59.7 µM (inactive) | 53.1 µM (inactive) | 49.9 µM (inactive) | 25.8 µM (inactive) | 33.4 µM (inactive) | 58.3 µM (inactive) | > 92 µM (inactive) | 34.8 µM (inactive) | – | 97.7 µM (inactive) | > 82 µM (inactive) | 39.1 µM (inactive) | 54.6 µM (inactive) | 57.5 µM (inactive) | – | > 85.3 µM (inactive) | 47.8 µM (inactive) | 71 µM (inactive) | 26.6 µM (inactive) |
